Values of other authors as cited in patent publication US8829054B1, “Ready-to-use co-solvents pharmaceutical composition in modified flexible plastic container” (Welgrace Research Group, priority 2013, dated 2014).

Conditions: published literature, Rosenberg et al. 1988

activation energies for Esmolol decompositions: 19 to 21.5 kcal/mol
SMILES: COC(=O)CCc1ccc(OCC(O)CNC(C)C)cc1.Cl (stereo not shown) [Esmolol, methyl3-[4-[2-hydroxy-3-(isopropylamino)propoxy]phenyl]propionate hydrochloride]
